Data as given in patent US20150329501A1, “SUBSTITUTED [1,2,4]TRIAZOLE COMPOUNDS AND THEIR USE AS FUNGICIDES” (BASF SE, priority 2012, published 2015).

Key:
[1] = system: Botrytis cinerea; experiment: Microtest: activity against the grey mold Botrytis cinerea in the microtiterplate test (Botrci) (M2, M4, M2-1, CM3); format: cell-based; details: relative growth vs active compound-free control (100%), microtiter plate, 405 nm, 7 days after inoculation
[2] = system: Pyricularia oryzae; format: cell-based; details: relative growth vs active compound-free control (100%), microtiter plate, 405 nm, 7 days after inoculation
[3] = system: Phytophthora infestans; format: cell-based; details: relative growth vs active compound-free control (100%), microtiter plate, 405 nm, 7 days after inoculation
[4] = system: Septoria tritici; experiment: Microtest: activity against leaf blotch on wheat caused by Septoria tritici (Septtr) (M1, M6, M2-3, CM4); format: cell-based; details: 405 nm, 7 days after inoculation; for Growth (%) at 0.5 ppm Septtr: relative growth vs active compound-free control (100%), microtiter plate; for relative growth in % of the pathogen: 31 ppm, compound-free control = 100%
[5] = system: Phakopsora pachyrhizi; experiment: Green house: curative control of soy bean rust on soy beans caused by Phakopsora pachyrhizi (Phakpa K2) (G2-3); format: in vivo; details: 125 ppm, sprayed after inoculation (curative), untreated plants 90% infected
[6] = system: Botrytis cinerea; experiment: Green house: preventative fungicidal control of Botrytis cinerea on leaves of green pepper (Botrci P1) (G2-1); format: in vivo; details: 125 ppm, sprayed the day before inoculation, untreated plants 90% infected
Protocol: Young seedlings of green pepper were grown in pots to the 4 to 5 leaf stage. […] The next day the plants were inoculated with an aqueous biomalt solution containing the spore suspension of Botrytis cinerea.

[7] = system: Alternaria solani; experiment: Green house: preventative fungicidal control of early blight on tomatoes (Alternaria solani) (Alteso P1) (G2, G2-2); details: 125 ppm, sprayed the day before inoculation; tomato; untreated plants 70% infected
Protocol: Water was then added to total volume of 100 ml. This stock solution was diluted with the described solvent-emulsifier-water mixture to the given concentration.
Young seedlings of tomato plants were grown in pots. These plants were sprayed to run-off with an aqueous suspension, containing the concentration of active ingredient or mixture mentioned in the table below. The next day, the treated plants were inoculated with an aqueous suspension of Alternaria solani. Then the trial plants were immediately transferred to a humid chamber. After 5 days at 18 to 20° C. and a relative humidity close to 100%, the extent of fungal attack on the leaves was visually assessed as % diseased leaf area.

In the case of `CC(C)(C)C(O)(Cn1cncn1)c1cccc(Oc2ccccc2)c1` (stereo not shown), the “Growth (%) at 31 ppm Botrci” value [1] is reported as 76%, the “Growth (%) at 8 ppm Pyrior” value [2] is reported as 89% and the “Growth (%) at 31 ppm Phytin” value [3] is reported as 80%. The “Growth (%) at 0.5 ppm Septtr” value [4] was 83%.

With `CC(C)(C)C(O)(Cn1cncn1)c1cc(Cl)cc(Oc2ccccc2)c1` (stereo not shown) the “Growth (%) at 8 ppm Pyrior” value [2] was 69%.

For `CC(C)(C)C(O)(Cn1cncn1)c1cccc(Oc2ccc(Cl)cc2)c1` (stereo not shown) [Compound I-24], the “Growth (%) at 31 ppm Botrci” value [1] was 9%, the “Growth (%) at 8 ppm Pyrior” value [2] was 0% and the “Growth (%) at 31 ppm Phytin” value [3] was 42%. For the same molecule, the “Growth (%) at 0.5 ppm Septtr” value [4] was 13%.

`CC(C)(C)C(O)(Cn1cncn1)c1cc(Cl)cc(-c2ccc(Cl)cc2)c1` (stereo not shown) [Compound I-27] was tested, and the “infection (% diseased leaf area)” value [5] was 7%.

For `OC(Cn1cncn1)(c1cccc(-c2ccc(Cl)cc2)c1)C(F)(F)F` (stereo not shown) [Compound I-29], the “infection (% diseased leaf area)” value [6] was 1%, the “infection (% diseased leaf area)” value [7] was 10% and the “relative growth in % of the pathogen” value [4] was 0%. The “infection (% diseased leaf area)” value [5] was 0%.

`C#CCC(O)(Cn1cncn1)c1cccc(-c2ccc(Cl)cc2)c1` (stereo not shown) [Compound I-30] was tested, and the “infection (% diseased leaf area)” value [6] was 1%, the “infection (% diseased leaf area)” value [7] was 1% and the “relative growth in % of the pathogen” value [4] was 0%. For the same molecule, the “infection (% diseased leaf area)” value [5] was 1%.

With `CC(C)(C)C(O)(Cn1cncn1)c1cc(Cl)cc(Oc2ccc(Cl)cc2)c1` (stereo not shown) [Compound I-31] the “Growth (%) at 8 ppm Pyrior” value [2] was 0%.
